In data set [1] the test system is primary rat microglia. Kind of data set: Cell toxicity (dead cells, size <150 μm2) in LPS assay. The note with it: for LPS % cell toxicity: primary microglia HTS, LPS stimulation, decreased size (<150 μm^2) as marker of toxicity; for IC50: read-out: Cell Toxicity IC50 (uM) [LPS assay], LPS assay.
Data set [2] relates to fibrin-induced microglia activation. Kind of data set: Image-based assay of fibrin-induced microglia activation (HTS and dose response). It counts as cell-based, rat. The note with it: for pIC50 / IC50 / inhibition at 10 µM: Rattus norvegicus, Microglia; for IC50: read-out: Fibrin IC50 (uM) (Suppl. Table 7); for inhibition at 10 µM: primary microglia HTS, fibrin stimulation, increased cell size (>800 μm^2) as marker of activation, read-out: Fibrin % inhibition.

Data set [3] concerns primary rat microglia. Kind of data set: Cell toxicity (dead cells, size <150 μm2) in coated fibrin (cFib) assay.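 For Fibrin % cell toxicity: share of dead cells sized under 150 µm2 at 10 µM in fibrin-stimulated microglia HTS.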 The note with it: primary microglia HTS, fibrin stimulation; decreased size (<150 μm^2) as marker of toxicity.
Data set [4] in a line: in vitro. The note with it: rat, Cell Toxicity IC50 (uM) [cFib assay].
Data set [5] concerns LPS-induced microglia activation. Kind of data set: Image-based assay of LPS-induced microglia activation (HTS and dose response). It counts as cell-based, rat. The note with it: Rattus norvegicus, Microglia; for inhibition at 10 µM: primary microglia HTS, LPS stimulation, increased cell size (>800 μm^2) as marker of activation, read-out: LPS % inhibition; for IC50: read-out: LPS IC50 (uM) (Suppl. Table 7).

Data set [6] concerns fibrin- and LPS-induced microglia activation. Kind of data set: cells. The note with it: for inhibition at 10 µM: Rattus norvegicus. It counts as cell-based, rat.
The nature of data set [7]: in vitro. The note with it: rat.
[8] abbreviates: 48 h, Table 1, dose response 0.001-20 μM, triplicates, primary rat microglia, 48 h, read-out: Fibrin IC50.
The mark [9] stands for this setting: dose response, fibrin-induced microglia activation, read-out: Fibrin IC50.
Setting [10] is: fibrin-induced microglia activation, dose response.
[11] abbreviates: 48 h, Table 1, dose response 0.001-20 μM, triplicates, primary rat microglia, 48 h, read-out: LPS IC50.
The mark [12] stands for this setting: LPS-induced microglia activation, dose response.
Setting [13] is: dose response, LPS-induced microglia activation, read-out: LPS IC50.
Setting [14] is: HTS of 1907 compounds, quadrant by fibrin and LPS inhibition.
The mark [15] stands for this setting: Microglia, Table 3, read-out: Cherry-picked Hit (Suppl. Table 7).
Setting [16] is: Microglia, HTS hit classification, read-out: Hit.
Where [17] appears, read: quadrant by fibrin and LPS inhibition in HTS of 1907 compounds.
[18] abbreviates: hit classification in microglia HTS, read-out: Cherry-picked Hit (Suppl. Table 7).

pIC50: −log10 of the molar value. Counter-ions that a name gives are not always drawn. Like-named read-outs stand apart in the source and are kept apart here.

With `CC(=O)OCC(=O)[C@@]1(O)CC[C@H]2[C@@H]3CCC4=CC(=O)CC[C@]4(C)[C@@]3(F)[C@@H](O)C[C@@]21C` [Fludrocortisone acetate, reference compound], the “LPS % cell toxicity” value with primary rat microglia [1] came to 4%. The IC50 (in general, the concentration at which inhibition is half-maximal) was more than 20 µM in the data set with primary rat microglia [1]; more than 20 µM in the data set on primary rat microglia [1] (Table 6); less than 0.001 µM in data set [2] (Table 3); less than 0.001 µM in data set [2] (Table 6); less than 0.001 µM in data set [2] (setting [10]); more than 20 µM in “in vitro [4]” (Table 3). The IC50 in “in vitro [4]” (cFib assay) is more than 20 µM; in the data set “in vitro [4]” (cFib assay, Table 6), more than 20 µM; in data set [5] (setting [12]), 0.4 µM; in data set [5] (Table 3), 0.4 µM; in data set [5] (Table 6), 0.4 µM. Further, the “Fibrin Selectivity” value in data set [2] amounted to 362. The “Fibrin Selectivity (LOG10)” value in data set [2] was 2.56. The pIC50 in data set [2] (setting [8]) was more than 9.00; in data set [2] (Table 7, read-out: fib_IC50), 8.70; in data set [2] (setting [9]) it was more than 9.00; in data set [5] (setting [11]), 6.40; in data set [5] (Table 7, read-out: LPS_IC50) it was 8.70; in data set [5] (setting [13]), 6.40. This compound also had a pIC50 in the data set “in vitro [7]” of less than 4.70. Further, the inhibition at 10 µM in data set [2] was 104%; in data set [5] (48 h), 101%; in data set [6] (setting [15]), more than 50%; in data set [6] (setting [16]), more than 50%. In addition, the “Fibrin % cell toxicity” value in the data set with primary rat microglia [3] is 2%. In addition, the “Quadrant (FIG. 5b)” value in data set [6] (setting [14]) is reported as “Q2”; in data set [6] (Table 1, screen at 10 μM), “Q2”; in data set [6] (Table 2, screen at 10 μM), “Q2”; in data set [6] (Table 3, screen at 10 μM), “Q2”; in data set [6] (microglia HTS, Table 6), “Q2”; in data set [6] (setting [17]), “Q2”. Moreover, in data set [6] (Table 7, fib = fibrin, LPS, tox = toxicity), the Activity entry is “fib/LPS”.

As to `CCCCC(=O)O[C@]1(C(=O)CO)[C@@H](C)C[C@H]2[C@@H]3CCC4=CC(=O)C=C[C@]4(C)[C@@]3(F)[C@@H](O)C[C@@]21C` [Betamethasone valerate, reference compound], the “LPS % cell toxicity” value in the data set on primary rat microglia [1] was 1%. Further, the pIC50 was 4.70 in data set [2] (setting [8]); 4.70 in data set [2] (setting [9]); less than 4.70 in data set [5] (setting [11]); less than 4.70 in data set [5] (setting [13]); less than 4.70 in “in vitro [7]”. For the same compound, the IC50 in data set [2] (setting [10]) is 20 µM; in the data set “in vitro [4]” (cFib assay), more than 20 µM; in data set [5] (setting [12]) it was more than 20 µM. In addition, the inhibition at 10 µM was 69% in data set [2], 55% in data set [5] (48 h), more than 50% in data set [6] (setting [16]) and more than 50% in data set [6] (setting [18]). Moreover, the “Fibrin % cell toxicity” value in the data set on primary rat microglia [3] turned out to be 1%. Further, the “Quadrant (FIG. 5b)” value in data set [6] (setting [14]) is “Q2”; in data set [6] (Table 1, screen at 10 μM), “Q2”; in data set [6] (setting [17]), “Q2”.

On to `CC(=O)OCC(=O)[C@H]1CC[C@H]2[C@@H]3CCC4=CC(=O)CC[C@]4(C)[C@H]3CC[C@]12C` [Desoxycorticosterone acetate, reference compound], for which, in the data set on primary rat microglia [1], the “LPS % cell toxicity” value turned out to be 1%. Besides, the IC50 with primary rat microglia [1] was more than 20 µM; in data set [2] (Table 3), 0.5 µM; in data set [2] (setting [10]) it was 0.5 µM; in “in vitro [4]” (Table 3) it was more than 20 µM; in the data set “in vitro [4]” (cFib assay), more than 20 µM; in data set [5] (setting [12]), 5 µM. Further, the IC50 in data set [5] (Table 3) worked out at 5 µM. For the same compound, in data set [2], the “Fibrin Selectivity” value turned out to be 10. Further, in data set [2], the “Fibrin Selectivity (LOG10)” value was determined as 0.98. The pIC50 in data set [2] (setting [8]) was 6.30; in data set [2] (setting [9]), 6.30; in data set [5] (setting [11]), 5.30; in data set [5] (setting [13]), 5.30; in “in vitro [7]”, less than 4.70. Besides, the inhibition at 10 µM in data set [2] is 83%; in data set [5] (48 h), 47%; in data set [6] (setting [15]), more than 50%; in data set [6] (setting [16]), more than 50%. In addition, the “Fibrin % cell toxicity” value in the data set on primary rat microglia [3] is given as 1%. For the same compound, the “Quadrant (FIG. 5b)” value is “Q3” in data set [6] (setting [14]); “Q3” in data set [6] (Table 1, screen at 10 μM); “Q3” in data set [6] (Table 3, screen at 10 μM); “Q3” in data set [6] (setting [17]).

In the case of `Clc1ccc(C(OCCN2CCCCC2)c2ccccc2)cc1` (stereo not drawn) [Cloperastine hydrochloride, reference compound], in the data set on primary rat microglia [1], the “LPS % cell toxicity” value came to 0%. Further, the pIC50 was 5.15 in data set [2] (setting [8]); 5.15 in data set [2] (setting [9]); 5.05 in data set [5] (setting [11]); 5.05 in data set [5] (setting [13]); less than 4.70 in the data set “in vitro [7]”. The IC50 in data set [2] (setting [10]) was 7 µM; in “in vitro [4]” (cFib assay), more than 20 µM; in data set [5] (setting [12]), 9 µM. Also, the inhibition at 10 µM is 64% in data set [2], 44% in data set [5] (48 h), more than 50% in data set [6] (setting [16]) and more than 50% in data set [6] (setting [18]). Moreover, in the data set with primary rat microglia [3], the “Fibrin % cell toxicity” value amounted to 2%. Besides, the “Quadrant (FIG. 5b)” value is on record as “Q3” in data set [6] (setting [14]); “Q3” in data set [6] (Table 1, screen at 10 μM); “Q3” in data set [6] (setting [17]).

Consider `COc1ccc(-n2nc(CCC(=O)N(C)O)cc2-c2ccc(Cl)cc2)cc1` [Tepoxalin, reference compound], for which the “LPS % cell toxicity” value in the data set with primary rat microglia [1] was found to be 2%. Further, the IC50 in the data set with primary rat microglia [1] was more than 20 µM; in data set [2] (Table 3), 3 µM; in data set [2] (setting [10]), 3 µM; in “in vitro [4]” (Table 3), more than 20 µM; in “in vitro [4]” (cFib assay), more than 20 µM; in data set [5] (setting [12]), 18 µM. In addition, the IC50 in data set [5] (Table 3) was determined as 18 µM. Also, the “Fibrin Selectivity” value in data set [2] came to 6. Besides, the “Fibrin Selectivity (LOG10)” value in data set [2] amounted to 0.75. The pIC50 in data set [2] (setting [8]) is 5.52; in data set [2] (setting [9]) it was 5.52; in data set [5] (setting [11]), 4.74; in data set [5] (setting [13]) it was 4.74; in the data set “in vitro [7]”, less than 4.70. The inhibition at 10 µM in data set [2] is 76%; in data set [5] (48 h) it was 66%; in data set [6] (setting [15]), more than 50%; in data set [6] (setting [16]) it was more than 50%. The “Fibrin % cell toxicity” value with primary rat microglia [3] is reported as 1%. Further, the “Quadrant (FIG. 5b)” value in data set [6] (setting [14]) was “Q2”; in data set [6] (Table 1, screen at 10 μM), “Q2”; in data set [6] (Table 3, screen at 10 μM) it was “Q2”; in data set [6] (setting [17]) it was “Q2”.

As to `NCCc1cc[nH]n1` [Betazole hydrochloride, reference compound], the “LPS % cell toxicity” value in the data set with primary rat microglia [1] came to 1%. Moreover, the IC50 is more than 20 µM in the data set with primary rat microglia [1]; 12 µM in data set [2] (Table 3); 12 µM in data set [2] (setting [10]); more than 20 µM in the data set “in vitro [4]” (Table 3); more than 20 µM in “in vitro [4]” (cFib assay); more than 20 µM in data set [5] (setting [12]). In data set [5] (Table 3), the concentration for half-maximal inhibition (IC50) is more than 20 µM. In addition, the “Fibrin Selectivity” value in data set [2] was found to be 2. In data set [2], the “Fibrin Selectivity (LOG10)” value came out at 0.22. The pIC50 in data set [2] (setting [8]) is 4.92; in data set [2] (setting [9]), 4.92; in data set [5] (setting [11]), less than 4.70; in data set [5] (setting [13]) it was less than 4.70; in the data set “in vitro [7]” it was less than 4.70. Further, the inhibition at 10 µM is 59% in data set [2], 38% in data set [5] (48 h), more than 50% in data set [6] (setting [15]) and more than 50% in data set [6] (setting [16]). The “Fibrin % cell toxicity” value with primary rat microglia [3] came out at 1%. In addition, the “Quadrant (FIG. 5b)” value is recorded as “Q3” in data set [6] (setting [14]); “Q3” in data set [6] (Table 1, screen at 10 μM); “Q3” in data set [6] (Table 3, screen at 10 μM); “Q3” in data set [6] (setting [17]).

In the case of `Nc1ccc(S(=O)(=O)Nc2cnc3ccccc3n2)cc1` [Sulfaquinoxaline sodium, reference compound], in the data set with primary rat microglia [1], the “LPS % cell toxicity” value was found to be 3%. In addition, the pIC50 (in data set [2] (setting [8]); in data set [2] (setting [9]); in data set [5] (setting [11]); in data set [5] (setting [13]); in “in vitro [7]”) was less than 4.70 in each case. Besides, the IC50 (in data set [2] (setting [10]); in “in vitro [4]” (cFib assay); in data set [5] (setting [12])) was more than 20 µM throughout. In addition, the inhibition at 10 µM in data set [2] was 106%; in data set [5] (48 h) it was 104%; in data set [6] (setting [16]) it was more than 50%; in data set [6] (setting [18]), more than 50%. In addition, the “Fibrin % cell toxicity” value in the data set with primary rat microglia [3] is 3%. In addition, the “Quadrant (FIG. 5b)” value in data set [6] (setting [14]) is “Q2”; in data set [6] (Table 1, screen at 10 μM) it was “Q2”; in data set [6] (setting [17]) it was “Q2”.

These data come from patent US20210330611A1, “THERAPY FOR NEUROLOGICAL DISEASES/DISORDERS” (priority 2020, published 2021).
